# Patent US7598245B2 (Vertex Pharmaceuticals Incorporated, priority 2003, dated 2009)
# Where “and” joins values, the source holds several entries; their conditions need not be identical. Equal values may be shown once.
# What was measured:
# [1] = target: T1, FLT-3 (Homo sapiens, UniProt P36888); assay: Inhibition of FLT-3, radiometric filter-binding assay; type: biochemical; details: 90 μM ATP, pE4Y substrate; read-out: Ki values (FLT-3)
# T1 construct: 0.02% BSA and 3 nM FLT-3
# T1 sequence (P36888 27-993): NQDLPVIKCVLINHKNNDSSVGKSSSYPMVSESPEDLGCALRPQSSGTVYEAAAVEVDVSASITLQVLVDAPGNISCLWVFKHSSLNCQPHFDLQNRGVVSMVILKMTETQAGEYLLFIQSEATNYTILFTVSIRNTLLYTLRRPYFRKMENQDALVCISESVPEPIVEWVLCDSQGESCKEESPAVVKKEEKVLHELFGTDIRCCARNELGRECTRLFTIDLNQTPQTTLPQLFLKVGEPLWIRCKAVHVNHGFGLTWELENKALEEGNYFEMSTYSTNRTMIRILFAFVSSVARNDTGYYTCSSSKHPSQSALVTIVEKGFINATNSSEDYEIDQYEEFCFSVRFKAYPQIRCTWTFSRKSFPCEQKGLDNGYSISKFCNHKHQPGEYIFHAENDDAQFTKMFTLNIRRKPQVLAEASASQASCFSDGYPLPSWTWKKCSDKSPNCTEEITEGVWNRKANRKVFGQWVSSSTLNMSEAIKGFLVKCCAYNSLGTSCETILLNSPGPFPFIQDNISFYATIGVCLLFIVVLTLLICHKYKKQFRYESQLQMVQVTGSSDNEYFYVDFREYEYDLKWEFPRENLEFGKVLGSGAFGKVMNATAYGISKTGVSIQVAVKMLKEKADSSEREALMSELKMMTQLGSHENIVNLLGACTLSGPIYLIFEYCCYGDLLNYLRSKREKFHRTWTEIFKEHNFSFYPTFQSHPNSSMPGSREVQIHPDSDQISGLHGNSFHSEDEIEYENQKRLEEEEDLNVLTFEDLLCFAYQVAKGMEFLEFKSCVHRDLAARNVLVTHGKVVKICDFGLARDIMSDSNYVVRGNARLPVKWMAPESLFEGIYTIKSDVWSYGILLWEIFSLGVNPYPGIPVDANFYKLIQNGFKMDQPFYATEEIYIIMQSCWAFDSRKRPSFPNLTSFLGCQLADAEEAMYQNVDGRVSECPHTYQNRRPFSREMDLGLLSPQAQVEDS
# Experimental: Compounds were screened for their ability to inhibit FLT-3 activity using a radiometric filter-binding assay. This assay monitors the ^33P incorporation into a substrate poly(Glu, Tyr) 4:1 (pE4Y). Reactions were carried out in a solution containing 100 mM HEPES (pH 7.5), 10 mM MgCl2, 25 mM NaCl, 1 mM DTT, 0.01% BSA and 2.5% DMSO. Final substrate concentrations in the assay were 90 μM ATP and 0.5 mg/mL pE4Y (both from Sigma Chemicals, St Louis, Mo.). The final concentration of compounds is generally between 0.01 and 5 μM. Typically, a 12-point titration was conducted by preparing serial dilutions from 10 mM DMSO stock of test compound. Reactions were carried out at room temperature.
# Two assay solutions were prepared. Solution 1 contains 100 mM HEPES (pH 7.5), 10 mM MgCl2, 25 mM NaCl, 1 mg/ml pE4Y and 180 μM ATP (containing 0.3 μCi of [γ-^33P]ATP for each reaction). Solution 2 contains 100 mM HEPES (pH 7.5), 10 mM MgCl2, 25 mM NaCl, 2 mM DTT, 0.02% BSA and 3 nM FLT-3. The assay was run on a 96 well plate by mixing 50 μL each of Solution1 and 2.5 mL of the test compounds. The reaction was initiated with Solution2. After incubation for 20 minutes at room temperature, the reaction was stopped with 50 μL of 20% TCA containing 0.4 mM of ATP. All of the reaction volume was then transferred to a filter plate and washed with 5% TCA by a Harvester9600 from TOMTEC (Hamden, Conn.). The amount of ^33P incorporation into pE4y was analyzed by a Packard TopCount Microplate Scintillation Counter (Meriden, Conn.). The data was fitted using Prism software to get an IC50 or Ki.
# [2] = target: GSK-3β (AA 1-420) (Homo sapiens, UniProt P49841); assay: Inhibition of GSK-3, coupled enzyme system; type: biochemical; details: 20 μM ATP, 30° C.
# Sequence of GSK-3β (AA 1-420) (P49841 whole entry, the tested form may be a part): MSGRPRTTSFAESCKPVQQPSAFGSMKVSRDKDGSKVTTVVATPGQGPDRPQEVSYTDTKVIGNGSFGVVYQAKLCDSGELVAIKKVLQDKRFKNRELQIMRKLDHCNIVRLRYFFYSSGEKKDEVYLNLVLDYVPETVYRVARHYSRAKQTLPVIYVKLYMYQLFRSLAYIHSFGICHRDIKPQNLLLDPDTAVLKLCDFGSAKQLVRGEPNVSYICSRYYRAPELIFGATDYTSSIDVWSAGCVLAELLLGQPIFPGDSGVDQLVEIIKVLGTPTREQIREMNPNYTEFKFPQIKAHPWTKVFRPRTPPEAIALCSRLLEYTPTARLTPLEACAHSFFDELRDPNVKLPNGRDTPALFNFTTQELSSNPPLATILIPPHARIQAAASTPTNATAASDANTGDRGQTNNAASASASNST
# Experimental: Compounds are screened for their ability to inhibit GSK-3β (AA 1-420) activity using a standard coupled enzyme system [Fox et al. Protein Sci. 1998, 7, 2249]. Reactions are carried out in a solution containing 100 mM HEPES (pH 7.5), 10 mM MgCl2, 25 mM NaCl, 300 μM NADH, 1 mM DTT and 1.5% DMSO. Final substrate concentrations in the assay are 20 μM ATP (Sigma Chemicals, St Louis, Mo.) and 300 μM peptide (American Peptide, Sunnyvale, Calif.). Reactions are carried out at 30° C. and 20 nM GSK-3β. Final concentrations of the components of the coupled enzyme system are 2.5 mM phosphoenolpyruvate, 300 μM NADH, 30 μg/ml pyruvate kinase and 10 μg/ml lactate dehydrogenase.
# An assay stock buffer solution is prepared containing all of the reagents listed above with the exception of ATP and the test compound of interest. The assay stock buffer solution (175 μl) is incubated in a 96 well plate with 5 μl of the test compound of interest at final concentrations spanning 0.002 μM to 30 μM at 30° C. for 10 min. Typically, a 12 point titration is conducted by preparing serial dilutions (from 10 mM compound stocks) with DMSO of the test compounds in daughter plates. The reaction is initiated by the addition of 20 μl of ATP (final concentration 20 μM). Rates of reaction are obtained using a Molecular Devices Spectramax plate reader (Sunnyvale, Calif.) over 10 min at 30° C. The Ki values are determined from the rate data as a function of inhibitor concentration.
Ki [1],Ki [2] [nM],SMILES
< 60 nM,> 1000,"CC(=O)N1[C@H](C)CN(c2cc(-n3cnc(Nc4ccc(NC(=O)c5ccco5)cc4)n3)ccn2)C[C@@H]1C [Compound I-81, Furan-2-carboxylic acid (4-{1-[2-(4-acetyl-3,5-dimethyl-piperazin-1-yl)-pyridin-4-yl]-1H-[1,2,4]triazol-3-ylamino}-phenyl)-amide]"
< 60 nM,> 1000,CC(=O)N1[C@H](C)CN(c2cc(-n3cnc(Nc4ccc(N)cc4)n3)ccn2)C[C@@H]1C [Compound I-82]
30 to 200 nM,> 1000,"CC(=O)N1[C@H](C)CN(c2cc(-n3cnc(Nc4ccc(N5CCOCC5)cc4)n3)ccn2)C[C@@H]1C [Compound I-85, 1-(2,6-Dimethyl-4-{4-[3-(4-morpholin-4-yl-phenylamino)-[1,2,4]triazol-1-yl]-pyridin-2-yl}-piperazin-1-yl)-ethanone]"
30 to 200 nM,> 1000,CCCOC(=O)Nc1ccc(Nc2ncn(-c3ccnc(N4C[C@@H](C)N(C(C)=O)[C@@H](C)C4)c3)n2)cc1 [Compound I-88]
30 to 200 nM,> 1000,CC(=O)N1[C@H](C)CN(c2cc(-n3cnc(Nc4ccc(NC(=O)OC(C)C)cc4)n3)ccn2)C[C@@H]1C [Compound I-89]
30 to 200 nM,> 1000,CC(=O)N1[C@H](C)CN(c2cc(-n3cnc(Nc4ccc(NC(=O)OCC(C)C)cc4)n3)ccn2)C[C@@H]1C [Compound I-90]
30 to 200 nM,> 1000,CC(=O)N1[C@H](C)CN(c2cc(-n3cnc(Nc4ccc(NC(=O)OCC(C)(C)C)cc4)n3)ccn2)C[C@@H]1C [Compound I-91]
30 to 200 nM,> 1000,CC(=O)N1[C@H](C)CN(c2cc(-n3cnc(Nc4ccc(N5CCN(S(=O)(=O)c6ccc(C)cc6)CC5)cc4)n3)ccn2)C[C@@H]1C [Compound I-92]
1 to 30 nM,< 500,"O=C(CC1CCCC1)Nc1cc(-n2cnc(Nc3ccccc3)n2)ccn1 [Compound I-94, 2-Cyclopentyl-N-[4-(3-phenylamino-[1,2,4]triazol-1-yl)-pyridin-2-yl]-acetamide]"
1 to 30 nM,< 500,O=C(CCc1ccccc1)Nc1cc(-n2cnc(Nc3ccccc3)n2)ccn1 [Compound I-95]
1 to 30 nM,< 500,O=C(Cc1ccccc1)Nc1cc(-n2cnc(Nc3ccccc3)n2)ccn1 [Compound I-96]
1 to 30 nM,> 1000,"CC(=O)N1[C@H](C)CN(c2cc(-n3cnc(Nc4ccc(N5CCN(C(=O)OC(C)(C)C)CC5)cc4)n3)ccn2)C[C@@H]1C [Compound I-97, 4-(4-{1-[2-(4-Acetyl-3,5-dimethyl-piperazin-1-yl)-pyridin-4-yl]-1H-[1,2,4]triazol-3-ylamino}-phenyl)-piperazine-1-carboxylic acid tert-butyl ester]"
1 to 30 nM,> 1000,"CCNC(=O)Nc1ccc(Nc2ncn(-c3ccnc(N4C[C@@H](C)N(C(C)=O)[C@@H](C)C4)c3)n2)cc1 [Compound I-98, 1-(4-{1-[2-(4-Acetyl-3,5-dimethyl-piperazin-1-yl)-pyridin-4-yl]-1H-[1,2,4]triazol-3-ylamino}-phenyl)-3-ethyl-urea]"
1 to 30 nM,> 1000,CCCNC(=O)Nc1ccc(Nc2ncn(-c3ccnc(N4C[C@@H](C)N(C(C)=O)[C@@H](C)C4)c3)n2)cc1 [Compound I-99]
1 to 30 nM,> 1000,CC(=O)N1[C@H](C)CN(c2cc(-n3cnc(Nc4ccc(NC(=O)NC(C)C)cc4)n3)ccn2)C[C@@H]1C [Compound I-100]
30 to 200 nM,> 1000,CC(=O)N1[C@H](C)CN(c2cc(-n3cnc(Nc4ccc(NC(=O)NC(C)(C)C)cc4)n3)ccn2)C[C@@H]1C [Compound I-101]
1 to 30 nM,> 1000,CC(C)(C)CC(=O)Nc1cc(-n2cnc(Nc3ccccc3)n2)ccn1 [Compound I-102]
1 to 30 nM,> 1000,c1ccc(-n2cnc(Nc3ccnc(N4CCOCC4)c3)n2)cc1 [Compound I-105]
30 to 200 nM,> 1000,c1ccc(-n2cnc(Nc3ccc(N4CCOCC4)cc3)n2)cc1 [Compound I-106]
30 to 200 nM,> 1000,c1ccc(-n2cnc(Nc3ccnc(NCCN4CCOCC4)c3)n2)cc1 [Compound I-107]
30 to 200 nM and > 200 nM,> 1000,c1ccc(-n2cnc(Nc3ccc(N4CCOCC4)nc3)n2)cc1 [Compound I-134]
30 to 200 nM,> 1000,CN1CCN(c2ccc(Nc3ncn(-c4ccccc4)n3)cn2)CC1 [Compound I-135]
